Results on 5 compounds are retold here after paper PMC8752549, “Esc peptides as novel potentiators of defective cystic fibrosis transmembrane conductance regulator: an unprecedented property of antimicrobial peptides” (Cellular and Molecular Life Sciences: CMLS, 2021).

Where no end group is shown, it is not given here. [ ]: non-standard residue; d: D form.

Data set [1] concerns null-FRT cells not expressing CFTR. Description: Whole-cell patch-clamp, null-FRT cells. The settings on record: untransfected FRT, 20 µM FSK + 10 µM Esc peptides or GEN, n ≥ 3. In kind it is cell-based, Fischer rat. In general terms: Patch clamp records ionic current or voltage across a cell membrane.
Protocol: For whole-cell experiments the extracellular (bath) solution contained (in mM): 150 NaCl, 1 CaCl2, 1 MgCl2, 10 glucose, 10 mannitol, 10 Na-HEPES (pH 7.4). The pipette (intracellular) solution contained (in mM): 120 CsCl, 10 TEA-Cl, 0.5 EGTA, 1 MgCl2, 10 Cs-HEPES, 40 mannitol, 1 ATP. To activate CFTR, 20 µM FSK was added to the extracellular solution to phosphorylate the channel. In some samples the combination FSK + 50 µM GEN (positive control) as well as FSK + 10 µM peptides were added to the extracellular solution to test their potentiator activity.
For both patch configurations, the protocol to correlate current intensity and voltage for stimulation consisted of 500-ms voltage steps from -100 to + 100 mV or from -80 to + 120 mV in 20 mV increments, starting from a holding potential of -60 mV. The time-dependence of CFTR activation and inactivation was monitored by application of steps of 50 ms pulses to − 100, − 50, 0, 50 and 100 mV every 5 s from a holding potential of − 60 mV. The interval between steps was 4 s. Membrane currents were filtered at 1 kHz and digitized at 5 kHz by a low–pass 4–pole Bessel filter. […]
Whole-cell membrane currents were recorded in null FRT cells not expressing CFTR by using the same experimental solutions and stimulation protocols as described in the main text for F508del- FRT.
For data set [2] the following is noted: ivacaftor-based treatment of patients; cited from earlier work. The source says: Many proof-of-concept studies have disclosed that chemically modified ATP analogs and small organic molecules (e.g., isoflavones) have good potentiation effect by enhancing CFTR channel gating. However, the expected unspecific binding of ATP analogs to other proteins implicated in physiological functions limits the development of these molecules to the clinic. Other compounds capable of improving the activity of mutant CFTR can promote its phosphorylation by inhibiting phosphodiesterase’s activity, to heighten the intracellular level of cAMP. Ivacaftor was the first CFTR potentiator approved f ...

Data set [3] deals with P. aeruginosa pulmonary infection. The following applies: cited from earlier work. The source says:
(§1) During the last years, several studies have been conducted to identify compounds with suitable antibacterial properties. Antimicrobial peptides (AMPs) are a promising and effective therapeutic resource. Indeed, they rapidly kill microbial pathogens by perturbing their plasma-membrane thus limiting the induction of bacterial resistance compared to conventional antibiotics. In our laboratory, we identified a frog-skin derived membrane-active cationic AMP, i.e., Esc(1–21) […]-NH2 [24], with biocidal activity against the planktonic and the biofilm forms of P ...

The conditions of data set [4]: cited from earlier work.
Excerpt: as §1

A further data set relates to wt-CFBE and F508del-CFBE. The following applies: monolayers of wt-CFBE and F508del-CFBE; cited from earlier work.
Excerpt: as §1

Data set [5] concerns F508del-FRT and wt-FRT cells. In kind it is cell-based, Fischer rat. The procedure: (§2) To evaluate the lung epithelia integrity, FRT and CFBE41o- cells expressing mutated or functional CFTR were seeded on permeable supports (24 Millicell plates PSHT01QR1) and incubated for 24 h in their standard culture medium in the presence of peptides, at different concentration. DMSO, 0.1% v:v, final concentration) that was used to solubilize each compound was included as control. After 24 h, the medium was replaced with saline solution containing (in mM): 130 NaCl, 2.7 KCl, 1.5 KH2PO4, 1 CaCl2, 0.5 MgCl2, 10 glucose, 10 Na-Hepes (pH, 7.4). Saline solution was added to both apical and basolateral compartments of the permeable supports. Samples were incubated for 10 min at 37 °C and TEER was measured in basal conditions without CFTR activation, with the epithelial voltmeter (MILLICELL ERS-2, Millipore Burlington, MA).

In data set [6] the test system is F508del-CFTR. Description: CFTR-mediated transepithelial conductance (TEER), F508del-FRT. In kind it is cell-based. The settings on record: F508del-FRT pre-incubated 24 h with 1 µM VX-809; 10 µM peptide + 20 µM FSK, 10 min; inhibition with 30 µM PPQ102; n ≥ 6. On the procedure:
To evaluate CFTR activation, the same saline solution was used. Cells expressing F508del mutation were incubated with 1 µM VX-809 to favor the mutant protein rescue. After measurement of basal TEER, 20 µM FSK + 10 µM GEN as positive control, or FSK + peptides at the desired concentration were added on the epithelium apical side. Finally, 30 µM PPQ102 was added on the epithelium apical side to block CFTR, so to measure the own activity of CFTR. TEER measurement was performed at 37 °C after 10 min from the addition of each compound. From the values of TEER measured before and after CFTR inhibition, we calculated the CFTR-dependent TEER for each condition. All values of TEER were converted to transepithelial conductance (TEEC) using the formula TEEC = 1/TEER [67].

Data set [7] concerns F508del-CFBE41o- and wt-CFBE41o- cells. In kind it is cell-based. On the procedure:
as §2

Data set [8] has as its system F508del-CFTR. Description: Inside-out patch-clamp (macro-patches), F508del-FRT cells. The class given is biochemical. The settings on record: 1 mM ATP + 125 nM PKA catalytic subunit + 10 µM peptide in intracellular bath, n ≥ 3. On the procedure:
Whole-cell and inside-out membrane currents were recorded in FRT cells stably expressing F508del CFTR after incubation with 1 µM of the corrector VX-809 for 24 h to increase mutated CFTR membrane expression.
For inside-out patch-clamp experiments, the pipette solution contained (in mM): 150 N-methyl-D-glucamine chloride (NMDG-Cl), 3 CaCl2, 2 MgCl2, 10 Na-Hepes (pH 7.3). The bath solution for these experiments contained (in mM): 150 NMDG-Cl, 2 MgCl2, 10 EGTA, 10 Na-Hepes, 1 ATP, which was supplemented with 125 nM catalytic subunit of PKA (Promega, […]) and peptides at 10 µM. Pipette electrical resistance for both whole-cell and inside-out experiments was 3–5 MΩ.
For both patch configurations, the protocol to correlate current intensity and voltage for stimulation consisted of 500-ms voltage steps from -100 to + 100 mV or from -80 to + 120 mV in 20 mV increments, starting from a holding potential of -60 mV. The time-dependence of CFTR activation and inactivation was monitored by application of steps of 50 ms pulses to − 100, − 50, 0, 50 and 100 mV every 5 s from a holding potential of − 60 mV. The interval between steps was 4 s. Membrane currents were filtered at 1 kHz and digitized at 5 kHz by a low–pass 4–pole Bessel filter.

As to `O=c1c(-c2ccc(O)cc2)coc2cc(O)cc(O)c12` [GEN, genistein], in data set [1], the “change of ion current” value is reported as “no significant change”.
`CC(C)(C)c1cc(C(C)(C)C)c(NC(=O)c2c[nH]c3ccccc3c2=O)cc1O` [VX-770, ivacaftor]: in data set [2], the enhanced lung function was 10%.
In the case of “GIFSKLAGKKIKN[dL]LI[dS]GLKG-NH2 [Esc(1–21)-1c, diastereomer of Esc(1–21) carrying D-Leu14 and D-Ser17]”, the “toxicity or inflammatory side events” value in data set [3] is given as “without eliciting toxicity or inflammatory side events”. In data set [3] (mice), the “effectiveness in contrasting P. aeruginosa pulmonary infection” value is “higher effectiveness than the all-L counterpart”. The “susceptibility to proteolytic degradation compared with Esc(1–21)” value in data set [4] is “less susceptible”. The “promotion of re-epithelialization compared with Esc(1–21)” value in the data set with wt-CFBE and F508del-CFBE is given as “more efficient”. In addition, the “change of TEER / transepithelial conductance (G) versus DMSO control” value in [5] and in data set [7] was “do not alter” in each case. The “CFTR-mediated conductance (ΔG) compared to FSK-treated samples” value with F508del-CFTR [6] is recorded as “slightly more pronounced”.
As to “Gly-Ile-Phe-Ser-Lys-Leu-Ala-Gly-Lys-Lys-Ile-Lys-Asn- DLeu -Leu-Ile-DphosphoSer-Gly-Leu-Lys-Gly-NH2 [[DLeu^14, DphosphoSer^17]Esc, Esc analog with DLeu14 and D-phosphoSer at position 17]”, the “current intensity at + 100 mV compared to control basal conditions” value with F508del-CFTR [8] is listed as ~ 2.5 fold. Moreover, the “CFTR-mediated conductance (ΔG) compared to FSK-treated samples” value in the data set with F508del-CFTR [6] was “about twofold”.
For the compound “Gly-Ile-Phe-Ser-Lys-Leu-Ala-Gly-Lys-Lys-Ile-Lys-Asn-Leu-Leu-Ile-Ser-Gly-Leu-Lys-Gly- NH2 [Esc(1–21)]”, the “change of TEER / transepithelial conductance (G) versus DMSO control” value in data set [5] and in [7] was “do not alter” each time.
